Drawing on the supplement of paper PMC10307832, this text covers relative viability for five compounds.

SMILES strings stand for the structures.

In one assay the test system is PC-14. As to the kind of experiment: relative viability (nuclei count vs DMSO), 5 days (fraction); higher = more cells survive. The conditions noted are these: first compound 0.6325 µM. In a few lines:
(§1)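 Nuclei were stained with Hoechst during a one-step fixation (final 0.05% Triton X-100, 1% formaldehyde, 1 ug/ml Hoechst) carried out 5 days after dosing, then counted on 4× images. The cells, lung cancer lines in 1536-well plates, had been dosed by pin tool the day after seeding with one drug alone or a fixed anchor-drug dose plus five library-drug doses (not always all listed) in √10 steps. Relative viability is the nuclei count in treated wells divided by that in vehicle wells, and each value is the median of duplicate plates.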
With `COCC1(CO)C(=O)C2CCN1CC2` (stereo unspecified) [PRIMA-1MET] + CS(=O)(=O)CCNCc1ccc(-c2ccc3ncnc(Nc4ccc(OCc5cccc(F)c5)c(Cl)c4)c3c2)o1 [Lapatinib] (partner 2 µM), the relative viability came to 0.326.
With `COCC1(CO)C(=O)C2CCN1CC2` (stereo unspecified) [PRIMA-1MET] + C[C@]1(O)C[C@@H](c2nc(-c3ccc4ccc(-c5ccccc5)nc4c3)c3c(N)nccn32)C1 [Linsitinib] (partner 1 µM), the relative viability was determined as 0.978.
As to `COCC1(CO)C(=O)C2CCN1CC2` (stereo unspecified) [PRIMA-1MET] + COc1cc2c(Oc3ccc(NC(=O)C4(C(=O)Nc5ccc(F)cc5)CC4)cc3F)ccnc2cc1OCCCN1CCOCC1 [Foretinib] (partner 0.25 µM), the relative viability amounted to 0.87.
With `COCC1(CO)C(=O)C2CCN1CC2` (stereo unspecified) [PRIMA-1MET] + Cc1nc(NC(=O)N2CCC[C@H]2C(N)=O)sc1-c1ccnc(C(C)(C)C(F)(F)F)c1 [Alpelisib] (partner 2 µM), the relative viability is 1.03.

Still in this assay, the particulars now being: first compound 2 µM.
`COCC1(CO)C(=O)C2CCN1CC2` (stereo unspecified) [PRIMA-1MET] + CS(=O)(=O)N1CCN(Cc2cc3nc(-c4cccc5[nH]ncc45)nc(N4CCOCC4)c3s2)CC1 [Pictilisib] (partner 1 µM) registered a relative viability of 0.692.
For the compound `COCC1(CO)C(=O)C2CCN1CC2` (stereo unspecified) [PRIMA-1MET] + CS(=O)(=O)CCNCc1ccc(-c2ccc3ncnc(Nc4ccc(OCc5cccc(F)c5)c(Cl)c4)c3c2)o1 [Lapatinib] (partner 2 µM), the relative viability turned out to be 0.251.
The compound `COCC1(CO)C(=O)C2CCN1CC2` (stereo unspecified) [PRIMA-1MET] + C[C@]1(O)C[C@@H](c2nc(-c3ccc4ccc(-c5ccccc5)nc4c3)c3c(N)nccn32)C1 [Linsitinib] (partner 1 µM) gave a relative viability of 0.923.
Turning to `COCC1(CO)C(=O)C2CCN1CC2` (stereo unspecified) [PRIMA-1MET] + COc1cc2c(Oc3ccc(NC(=O)C4(C(=O)Nc5ccc(F)cc5)CC4)cc3F)ccnc2cc1OCCCN1CCOCC1 [Foretinib] (partner 0.25 µM), the relative viability turned out to be 0.931.
`COCC1(CO)C(=O)C2CCN1CC2` (stereo unspecified) [PRIMA-1MET] + Cc1nc(NC(=O)N2CCC[C@H]2C(N)=O)sc1-c1ccnc(C(C)(C)C(F)(F)F)c1 [Alpelisib] (partner 2 µM) returned a relative viability of 0.926.

The same assay, now with this note: first compound 6.325 µM.
`COCC1(CO)C(=O)C2CCN1CC2` (stereo unspecified) [PRIMA-1MET] + CS(=O)(=O)N1CCN(Cc2cc3nc(-c4cccc5[nH]ncc45)nc(N4CCOCC4)c3s2)CC1 [Pictilisib] (partner 1 µM) showed a relative viability of 0.797.
As for `COCC1(CO)C(=O)C2CCN1CC2` (stereo unspecified) [PRIMA-1MET] + CS(=O)(=O)CCNCc1ccc(-c2ccc3ncnc(Nc4ccc(OCc5cccc(F)c5)c(Cl)c4)c3c2)o1 [Lapatinib] (partner 2 µM), the relative viability amounted to 0.367.
`COCC1(CO)C(=O)C2CCN1CC2` (stereo unspecified) [PRIMA-1MET] + C[C@]1(O)C[C@@H](c2nc(-c3ccc4ccc(-c5ccccc5)nc4c3)c3c(N)nccn32)C1 [Linsitinib] (partner 1 µM) came in with a relative viability of 0.987.
Turning to `COCC1(CO)C(=O)C2CCN1CC2` (stereo unspecified) [PRIMA-1MET] + COc1cc2c(Oc3ccc(NC(=O)C4(C(=O)Nc5ccc(F)cc5)CC4)cc3F)ccnc2cc1OCCCN1CCOCC1 [Foretinib] (partner 0.25 µM), the relative viability was 1.12.
For `COCC1(CO)C(=O)C2CCN1CC2` (stereo unspecified) [PRIMA-1MET] + Cc1nc(NC(=O)N2CCC[C@H]2C(N)=O)sc1-c1ccnc(C(C)(C)C(F)(F)F)c1 [Alpelisib] (partner 2 µM), the relative viability was found to be 1.07.

Staying with this assay, now noted: first compound 20 µM.
`COCC1(CO)C(=O)C2CCN1CC2` (stereo unspecified) [PRIMA-1MET] + CS(=O)(=O)N1CCN(Cc2cc3nc(-c4cccc5[nH]ncc45)nc(N4CCOCC4)c3s2)CC1 [Pictilisib] (partner 1 µM) showed a relative viability of 0.401.
The compound `COCC1(CO)C(=O)C2CCN1CC2` (stereo unspecified) [PRIMA-1MET] + CS(=O)(=O)CCNCc1ccc(-c2ccc3ncnc(Nc4ccc(OCc5cccc(F)c5)c(Cl)c4)c3c2)o1 [Lapatinib] (partner 2 µM) displayed a relative viability of 0.358.
As for `COCC1(CO)C(=O)C2CCN1CC2` (stereo unspecified) [PRIMA-1MET] + C[C@]1(O)C[C@@H](c2nc(-c3ccc4ccc(-c5ccccc5)nc4c3)c3c(N)nccn32)C1 [Linsitinib] (partner 1 µM), the relative viability was determined as 0.927.
Consider `COCC1(CO)C(=O)C2CCN1CC2` (stereo unspecified) [PRIMA-1MET] + COc1cc2c(Oc3ccc(NC(=O)C4(C(=O)Nc5ccc(F)cc5)CC4)cc3F)ccnc2cc1OCCCN1CCOCC1 [Foretinib] (partner 0.25 µM), for which the relative viability was 0.914.
For `COCC1(CO)C(=O)C2CCN1CC2` (stereo unspecified) [PRIMA-1MET] + Cc1nc(NC(=O)N2CCC[C@H]2C(N)=O)sc1-c1ccnc(C(C)(C)C(F)(F)F)c1 [Alpelisib] (partner 2 µM), the relative viability stood at 0.905.

The subject of the next assay is PC-3 [JPC-3]. The assay is described as above. The conditions noted are these: first compound 0.2 µM. In outline: as §1
As for `COCC1(CO)C(=O)C2CCN1CC2` (stereo unspecified) [PRIMA-1MET] + CS(=O)(=O)N1CCN(Cc2cc3nc(-c4cccc5[nH]ncc45)nc(N4CCOCC4)c3s2)CC1 [Pictilisib] (partner 1 µM), the relative viability worked out at 0.681.
For `COCC1(CO)C(=O)C2CCN1CC2` (stereo unspecified) [PRIMA-1MET] + CS(=O)(=O)CCNCc1ccc(-c2ccc3ncnc(Nc4ccc(OCc5cccc(F)c5)c(Cl)c4)c3c2)o1 [Lapatinib] (partner 2 µM), the relative viability came out at 0.544.
In turn, `COCC1(CO)C(=O)C2CCN1CC2` (stereo unspecified) [PRIMA-1MET] + C[C@]1(O)C[C@@H](c2nc(-c3ccc4ccc(-c5ccccc5)nc4c3)c3c(N)nccn32)C1 [Linsitinib] (partner 1 µM) had a relative viability of 1.
On to `COCC1(CO)C(=O)C2CCN1CC2` (stereo unspecified) [PRIMA-1MET] + COc1cc2c(Oc3ccc(NC(=O)C4(C(=O)Nc5ccc(F)cc5)CC4)cc3F)ccnc2cc1OCCCN1CCOCC1 [Foretinib] (partner 0.25 µM), for which the relative viability came out at 1.12.
On to `COCC1(CO)C(=O)C2CCN1CC2` (stereo unspecified) [PRIMA-1MET] + Cc1nc(NC(=O)N2CCC[C@H]2C(N)=O)sc1-c1ccnc(C(C)(C)C(F)(F)F)c1 [Alpelisib] (partner 2 µM), for which the relative viability was determined as 1.1.

The same assay, now with this note: first compound 0.6325 µM.
Regarding `COCC1(CO)C(=O)C2CCN1CC2` (stereo unspecified) [PRIMA-1MET] + CS(=O)(=O)N1CCN(Cc2cc3nc(-c4cccc5[nH]ncc45)nc(N4CCOCC4)c3s2)CC1 [Pictilisib] (partner 1 µM), the relative viability was determined as 0.653.
Take `COCC1(CO)C(=O)C2CCN1CC2` (stereo unspecified) [PRIMA-1MET] + CS(=O)(=O)CCNCc1ccc(-c2ccc3ncnc(Nc4ccc(OCc5cccc(F)c5)c(Cl)c4)c3c2)o1 [Lapatinib] (partner 2 µM): the relative viability is 0.392.
As to `COCC1(CO)C(=O)C2CCN1CC2` (stereo unspecified) [PRIMA-1MET] + C[C@]1(O)C[C@@H](c2nc(-c3ccc4ccc(-c5ccccc5)nc4c3)c3c(N)nccn32)C1 [Linsitinib] (partner 1 µM), the relative viability was 0.92.
Regarding `COCC1(CO)C(=O)C2CCN1CC2` (stereo unspecified) [PRIMA-1MET] + COc1cc2c(Oc3ccc(NC(=O)C4(C(=O)Nc5ccc(F)cc5)CC4)cc3F)ccnc2cc1OCCCN1CCOCC1 [Foretinib] (partner 0.25 µM), the relative viability came to 0.942.
With `COCC1(CO)C(=O)C2CCN1CC2` (stereo unspecified) [PRIMA-1MET] + Cc1nc(NC(=O)N2CCC[C@H]2C(N)=O)sc1-c1ccnc(C(C)(C)C(F)(F)F)c1 [Alpelisib] (partner 2 µM), the relative viability was 0.942.

Staying with this assay, now noted: first compound 2 µM.
In the case of `COCC1(CO)C(=O)C2CCN1CC2` (stereo unspecified) [PRIMA-1MET] + CS(=O)(=O)N1CCN(Cc2cc3nc(-c4cccc5[nH]ncc45)nc(N4CCOCC4)c3s2)CC1 [Pictilisib] (partner 1 µM), the relative viability came out at 0.652.
Compound `COCC1(CO)C(=O)C2CCN1CC2` (stereo unspecified) [PRIMA-1MET] + CS(=O)(=O)CCNCc1ccc(-c2ccc3ncnc(Nc4ccc(OCc5cccc(F)c5)c(Cl)c4)c3c2)o1 [Lapatinib] (partner 2 µM) gave a relative viability of 0.456.
